Test [1] has as its target human recombinant BACE1 (Homo sapiens (Human), UniProt P56817). The experiment in a line: In vitro enzymatic BACE1 FRET assay. It counts as biochemical. Conditions: BACE1 FRET enzyme assay; read-out: IC50 IP (μM) BACE1 enzyme. In short, it runs like this:
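Ni-NTA-purified recombinant enzyme incubated 1 h with 50 nM FRET peptide substrate (fluorophore and quencher flanking the BACE cleavage site). Reaction stopped with Tris buffer raising pH to neutrality; cleavage-released fluorescence read at ex 488/em 590 nm.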

The target of test [2] is human recombinant BACE2 (Homo sapiens (Human), UniProt Q9Y5Z0). Kind of test: In vitro enzymatic BACE2 FRET assay. In kind it is biochemical. As to conditions: BACE2 FRET enzyme assay; read-out: IC50 IP (μM) BACE2 enzyme. Here is the method: These recombinant proteins were further purified using Ni-NTA affinity chromatography (Qiagen). […] This assay is effectively started by the addition of FRET substrate (50 nM) and the combination is incubated for one hour. The FRET assay is terminated by addition of Tris buffer, which raises the pH to neutrality, and the fluorescence is determined. The FRET substrate is a peptide with commercially available fluorophore and quencher, on opposite sides of the BACE cleavage site. Proteolytic cleavage of the FRET substrate releases quenching of fluorescence (excitation 488 nm and emission 590 nm).
human recombinant BACE2, sequence (Q9Y5Z0 63-518): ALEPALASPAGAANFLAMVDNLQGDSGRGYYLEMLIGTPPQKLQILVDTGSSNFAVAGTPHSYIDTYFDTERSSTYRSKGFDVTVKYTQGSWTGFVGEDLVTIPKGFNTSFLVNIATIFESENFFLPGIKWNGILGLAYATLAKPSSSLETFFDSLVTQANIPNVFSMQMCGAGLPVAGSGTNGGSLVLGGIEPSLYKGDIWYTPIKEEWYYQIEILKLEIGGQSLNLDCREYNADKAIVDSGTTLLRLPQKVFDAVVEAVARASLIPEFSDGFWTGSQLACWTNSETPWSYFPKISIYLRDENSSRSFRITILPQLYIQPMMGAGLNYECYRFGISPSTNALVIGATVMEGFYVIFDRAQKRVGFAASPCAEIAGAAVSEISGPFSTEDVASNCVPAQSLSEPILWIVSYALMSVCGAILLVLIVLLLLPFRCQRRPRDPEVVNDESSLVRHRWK

For test [3], the system named is Aβ40 in conditioned medium of cells stably expressing Amyloid Precursor Protein (APP). The experiment in a line: In vitro BACE-1 cell-based assay (Aβ40 sandwich ELISA). Conditions: BACE1 cell-based assay; read-out: IC50 IP (μM) BACE1 cell. In a few lines: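 APP-stable cells, pre-cultured 24 h at 37° C in DMEM/10% FBS, were treated 24 h with compound in a 10-point series starting at 100 μM or 10 μM (0.1% DMSO final). Secreted Aβ40 in conditioned medium was measured by pAb40/biotin-6E10 sandwich ELISA with Europium time-resolved fluorescence; IC50 from percent inhibition versus concentration.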
On the technique in general: ELISA stands for enzyme-linked immunosorbent assay.

The target of test [4] is Recombinant Cat D (Homo sapiens (Human), UniProt P07339). Kind of test: In vitro enzymatic Cathepsin D (Cat D) FRET assay. In kind it is biochemical. As to conditions: Cathepsin D FRET enzyme assay; read-out: IC50 IP (μM) CatD. In short, it runs like this: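 CHO-expressed enzyme; buffer 0.05 M citrate pH 3.5, 5 mM CHAPS, 10% DMSO final. Start with FRET substrate 20 nM, 1 h incubation, Tris stop (pH to neutral), fluorescence ex 500 nm/em 580 nm.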
Recombinant Cat D, sequence (P07339 65-412): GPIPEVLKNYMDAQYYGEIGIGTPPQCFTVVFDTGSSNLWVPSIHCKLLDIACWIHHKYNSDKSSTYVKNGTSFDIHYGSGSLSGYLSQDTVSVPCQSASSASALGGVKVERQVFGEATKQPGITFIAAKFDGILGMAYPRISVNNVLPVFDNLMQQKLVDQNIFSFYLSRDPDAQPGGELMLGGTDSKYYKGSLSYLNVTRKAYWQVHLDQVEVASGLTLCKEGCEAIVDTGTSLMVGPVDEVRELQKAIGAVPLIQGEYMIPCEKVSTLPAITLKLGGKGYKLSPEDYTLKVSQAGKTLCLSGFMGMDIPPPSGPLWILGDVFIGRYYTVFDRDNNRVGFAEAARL

Some results are limits rather than exact numbers.

human recombinant BACE1, sequence (P56817 46-501): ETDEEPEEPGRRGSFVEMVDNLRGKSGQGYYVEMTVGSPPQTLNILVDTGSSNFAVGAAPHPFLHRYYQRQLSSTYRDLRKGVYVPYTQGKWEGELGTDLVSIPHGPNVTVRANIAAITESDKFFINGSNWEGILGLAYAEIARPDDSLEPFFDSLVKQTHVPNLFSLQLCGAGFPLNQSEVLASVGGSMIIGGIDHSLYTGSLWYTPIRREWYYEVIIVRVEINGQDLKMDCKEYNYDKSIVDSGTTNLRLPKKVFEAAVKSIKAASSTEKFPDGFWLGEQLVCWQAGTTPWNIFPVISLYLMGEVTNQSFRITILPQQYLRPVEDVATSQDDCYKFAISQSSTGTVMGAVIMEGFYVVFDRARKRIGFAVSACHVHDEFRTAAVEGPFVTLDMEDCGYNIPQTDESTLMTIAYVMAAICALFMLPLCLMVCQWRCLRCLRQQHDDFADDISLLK

The IC50 is the concentration that inhibits the measured activity by half. With `C[C@]1(c2cc(Nc3ncnc4cc(C#N)cnc34)cc(F)c2F)N=C(N)S[C@@]2(CO)C[C@H]21` [Example 55, 4-((3-((1S,5S,6S)-3-amino-1-(hydroxymethyl)-5-methyl-2-thia-4-azabicyclo[4.1.0]hept-3-en-5-yl)-4,5-difluorophenyl)amino)pyrido[3,2-d]pyrimidine-7-carbonitrile], the IC50 in test [1] came to 0.00399 µM; in test [2], 0.014 µM; in test [3], 0.00457 µM; in test [4], 227 µM.
In the case of `N#Cc1cnc2c(Nc3cc(F)c(F)c([C@@]4(CF)N=C(N)S[C@]5(CO)C[C@@H]54)c3)nccc2c1` [Example 57, 8-((3-((1R,5S,6R)-3-amino-5-(fluoromethyl)-1-(hydroxymethyl)-2-thia-4-azabicyclo[4.1.0]hept-3-en-5-yl)-4,5-difluorophenyl)amino)-1,7-naphthyridine-3-carbonitrile], the IC50 stood at 0.00563 µM in test [1], 0.0235 µM in test [2], 0.0225 µM in test [3] and 29.5 µM in test [4].
In the same order, the values of `COc1cnc2c(Nc3cc(F)c(F)c([C@@]4(C)N=C(N)S[C@@]5(CO)C[C@H]54)c3)ncnc2c1` [Example 58, ((1S,5S,6S)-3-amino-5-(2,3-difluoro-5-((7-methoxypyrido[3,2-d]pyrimidin-4-yl)amino)phenyl)-5-methyl-2-thia-4-azabicyclo[4.1.0]hept-3-en-1-yl)methanol] are 0.00397 µM, 0.0308 µM, 0.00306 µM and 975 µM.
Regarding `NC1=N[C@](CF)(c2cc(NC(=O)c3ccc(Cl)cn3)cc(F)c2F)[C@@H]2C[C@]2(CF)S1` [Example 59, N-(3-((1S,5S,6S)-3-amino-1,5-bis(fluoromethyl)-2-thia-4-azabicyclo[4.1.0]hept-3-en-5-yl)-4,5-difluorophenyl)-5-chloro-2-pyridinecarboxamide], the IC50 was 0.00114 µM in test [1], < 0.00203 µM in test [2], 0.0229 µM in test [3] and > 400 µM in test [4].
`C[C@]1(c2cc(Nc3nccc4cc(C#N)cnc34)cc(F)c2F)N=C(N)S[C@@]2(CF)C[C@H]21` [Example 60, 8-((3-((1S,5S,6S)-3-amino-1-(fluoromethyl)-5-methyl-2-thia-4-azabicyclo[4.1.0]hept-3-en-5-yl)-4,5-difluorophenyl)amino)-1,7-naphthyridine-3-carbonitrile]: the half-inhibitory concentration (IC50) in test [1] stood at 0.00135 µM; in test [2], 0.00174 µM; in test [3], 0.00767 µM; in test [4] it was 204 µM.
As to `C#CCOc1cnc(C(=O)Nc2cc(F)c(F)c([C@@]3(C)N=C(N)S[C@@]4(CO)C[C@H]43)c2)cn1` [Example 61, N-(3-((1S,5S,6S)-3-amino-1-(hydroxymethyl)-5-methyl-2-thia-4-azabicyclo[4.1.0]hept-3-en-5-yl)-4,5-difluorophenyl)-5-(2-propyn-1-yloxy)-2-pyrazinecarboxamide], the 50% inhibitory concentration (IC50) in test [1] came out at 0.0003 µM; in test [2], 0.0201 µM; in test [3], 0.00035 µM; in test [4], 59.7 µM.
For `COc1cnc2c(Nc3cc(F)c(F)c([C@@]4(CF)N=C(N)S[C@H]5C[C@H]54)c3)nccc2n1` [Example 62, N-(3-((1S,5S,6S)-3-amino-5-(fluoromethyl)-2-thia-4-azabicyclo[4.1.0]hept-3-en-5-yl)-4,5-difluorophenyl)-2-methoxypyrido[3,4-b]pyrazin-5-amine], the IC50 in test [1] was 0.0289 µM; in test [2], 0.0885 µM; in test [3], 0.14 µM; in test [4], 295 µM.
On to `CC(C)Oc1cnc2c(Nc3cc(F)c(F)c([C@@]4(CF)N=C(N)S[C@H]5C[C@H]54)c3)nccc2n1` [Example 63, N-(3-((1S,5S,6S)-3-amino-5-(fluoromethyl)-2-thia-4-azabicyclo[4.1.0]hept-3-en-5-yl)-4,5-difluorophenyl)-2-(1-methylethoxy)pyrido[3,4-b]pyrazin-5-amine], for which the IC50 was 0.137 µM in test [1], 3.75 µM in test [2], 4.65 µM in test [3] and 494 µM in test [4].
Consider `COc1cnc2c(Nc3cc(F)c(F)c([C@@]4(C)N=C(N)S[C@@]5(CF)C[C@H]54)c3)ncnc2c1` [Example 64, (1S,5S,6S)-5-(2,3-difluoro-5-((7-methoxypyrido[3,2-d]pyrimidin-4-yl)amino)phenyl)-1-(fluoromethyl)-5-methyl-2-thia-4-azabicyclo[4.1.0]hept-3-en-3-amine], for which the half-maximal inhibitory concentration (IC50) came out at 0.00448 µM in test [1], 0.025 µM in test [2], 0.00281 µM in test [3] and 268 µM in test [4].
As to `COC[C@]12C[C@H]1[C@@](C)(c1cc(Nc3ncnc4cc(OC)cnc34)cc(F)c1F)N=C(N)S2` [Example 65, N-(3-((1S,5S,6S)-3-amino-1-(methoxymethyl)-5-methyl-2-thia-4-azabicyclo[4.1.0]hept-3-en-5-yl)-4,5-difluorophenyl)-7-methoxypyrido[3,2-d]pyrimidin-4-amine], the IC50 in test [1] was found to be 0.0133 µM; in test [2], 0.0836 µM; in test [3] it was 0.00781 µM; in test [4], 1230 µM.
With `COc1cnc2c(Nc3cc(F)c(F)c([C@@]4(CF)N=C(N)S[C@H]5C[C@H]54)c3)ncnc2c1` [Example 66, N-(3-((1S,5S,6S)-3-amino-5-(fluoromethyl)-2-thia-4-azabicyclo[4.1.0]hept-3-en-5-yl)-4,5-difluorophenyl)-7-methoxypyrido[3,2-d]pyrimidin-4-amine], the IC50 in test [1] is 0.0171 µM; in test [2], 0.132 µM; in test [3] it was 0.0525 µM; in test [4], > 400 µM.
Regarding `C[C@]1(c2cc(NC(=O)c3ccc(Cl)cn3)ccc2F)N=C(N)S[C@@H]2[C@H]1C2(F)F` [Example 69, N-(3-((1R,5S,6R)-3-amino-7,7-difluoro-5-methyl-2-thia-4-azabicyclo[4.1.0]hept-3-en-5-yl)-4-fluorophenyl)-5-chloro-2-pyridinecarboxamide], the IC50 in test [1] came out at 0.0152 µM; in test [2], 0.00302 µM; in test [3] it was 0.114 µM; in test [4] it was 939 µM.
On to `Cc1cc(C#N)cnc1C(=O)Nc1cc(F)c(F)c([C@@]2(CF)N=C(N)S[C@@]3(CO)C[C@H]32)c1` [Example 70, N-(3-((1S,5S,6S)-3-amino-5-(fluoromethyl)-1-(hydroxymethyl)-2-thia-4-azabicyclo[4.1.0]hept-3-en-5-yl)-4,5-difluorophenyl)-5-cyano-3-methyl-2-pyridinecarboxamide], for which the IC50 in test [1] is 0.00116 µM; in test [2], 0.00247 µM; in test [3] it was 0.0035 µM; in test [4] it was > 400 µM.
As for `C#CCOc1ccc(C(=O)Nc2cc(F)c(F)c([C@@]3(C)N=C(N)S[C@@]4(CO)C[C@H]43)c2)nc1` [Example 71, N-(3-((1S,5S,6S)-3-amino-1-(hydroxymethyl)-5-methyl-2-thia-4-azabicyclo[4.1.0]hept-3-en-5-yl)-4,5-difluorophenyl)-5-(2-propyn-1-yloxy)-2-pyridinecarboxamide], the IC50 turned out to be 0.00047 µM in test [1], 0.0375 µM in test [2], 0.00156 µM in test [3] and 329 µM in test [4].
For the molecule `COC[C@]12C[C@H]1[C@@](CF)(c1cc(Nc3ncnc4cc(Cl)cnc34)ccc1F)N=C(N)S2` [Example 73, N-(3-((1S,5S,6S)-3-amino-5-(fluoromethyl)-1-(methoxymethyl)-2-thia-4-azabicyclo[4.1.0]hept-3-en-5-yl)-4-fluorophenyl)-7-chloropyrido[3,2-d]pyrimidin-4-amine], the IC50 in test [1] is 0.00911 µM; in test [2], 0.00296 µM; in test [3], 0.0177 µM; in test [4], > 400 µM.
In the same order, the values of `COc1cnc(C(=O)Nc2ccc(F)c([C@@]3(CF)N=C(N)S[C@@]4(CO)C[C@H]43)c2)c(C)n1` [Example 75, N-(3-((1S,5S,6S)-3-amino-5-(fluoromethyl)-1-(hydroxymethyl)-2-thia-4-azabicyclo[4.1.0]hept-3-en-5-yl)-4-fluorophenyl)-5-methoxy-3-methyl-2-pyrazinecarboxamide] are 0.012 µM, 0.0295 µM, 0.0136 µM and > 400 µM.
For the molecule `C#CCOc1cnc(C(=O)Nc2ccc(F)c([C@@]3(CF)N=C(N)S[C@@]4(CO)C[C@H]43)c2)c(C)n1` [Example 76, N-(3-((1S,5S,6S)-3-amino-5-(fluoromethyl)-1-(hydroxymethyl)-2-thia-4-azabicyclo[4.1.0]hept-3-en-5-yl)-4-fluorophenyl)-3-methyl-5-(2-propyn-1-yloxy)-2-pyrazinecarboxamide], the IC50 stood at 0.00095 µM in test [1], 0.0174 µM in test [2], 0.00271 µM in test [3] and 1490 µM in test [4].

The values above are taken from patent US20160046618A1, “Cyclopropyl Fused Thiazin-2-Amine Compounds as Beta-Secretase Inhibitors and Methods of Use” (AMGEN INC., priority 2014, published 2016).
